What was measured:
[1] = tested on: HD-Drosophila expressing mutant HTT97Q; test: Rough eye phenotype in HD-Drosophila (Gmr-HTT97Q); assay type: in vivo, Drosophila melanogaster; conditions: 10 μM 6CR plus 100 μM Tropolone in media
Procedure: The Gmr-ga14-UAS-HTT97Q/cyo line expressing HTT97Q under the control of Gmr-gal4 in compound eyes was provided by MT SU (National Taiwan Normal University, Taipei, Taiwan). Fly stock was maintained and crossed at 25° C. on a standard cornmeal yeast agar medium.
In each compound treatment experiment, 15 Gmr-ga14-UAS-HTT97Q/cyo male flies were crossed with 15 Gmr-ga14-UAS-HTT-97Q/cyo females in a vial containing 10 mL of media supplemented with the testing compound at a final concentration of 10 μM 6CR (Sigma) or/and 100 μM Tropolone (Sigma). 6-chloropurine riboside (6CR) is a chemical reagent that inhibits the activity of SUPT4H by preventing the complex formation of SUPT4H/SUPT5H (Patent No.: US2018/0064744A1). Parent flies were removed after 7 days, and 4-day-old progenies carrying one Gmr-ga14-UAS-HTT97Q allele were collected for eye morphology examination. […] In each treatment group, flies were analyzed and normalized with control flies. […]
(§1) Please refer to FIG. 8. […] After parent fly removal, the 4-day-old progenies carrying one Gmr-ga14-UAS-HTT97Q allele were collected and analyzed for eye morphology. […] 4-day-old progenies as described above were collected and analyzed the levels of mutant HTT by Western blotting. α-tubulin was included and served as a loading control. […]

mutant HTT = test: Mutant HTT protein level in HD-Drosophila by Western blotting; assay type: in vivo, Drosophila melanogaster; conditions: 10 μM 6CR plus 100 μM Tropolone in media, fly heads
Procedure: For Drosophila samples, 15 males and 15 females HD flies were collected after each compound treatment. Their heads were isolated and homogenized with 1× sample buffer (50 mM Tris-HCl pH 7.5, 150 mM NaCl, 1% NP-40, 0.1% sodium dodecyl sulfate (SDS), 1% sodium deoxycholate, and blue dye) for protein lysate collection. Equivalent amounts of protein lysates were separated on 12% SDS-polyacrylamide gel, and then transferred to NC membranes (GE Healthcare Life Science). Detection of HTT and α-tubulin protein was performed as described above.
In each compound treatment experiment, 15 Gmr-ga14-UAS-HTT97Q/cyo male flies were crossed with 15 Gmr-ga14-UAS-HTT-97Q/cyo females in a vial containing 10 mL of media supplemented with the testing compound at a final concentration of 10 μM 6CR (Sigma) or/and 100 μM Tropolone (Sigma). […] In each treatment group, flies were analyzed and normalized with control flies. […]
as §1

O=c1cccccc1O [Tropolone]
rescue effect of rough eye phenotype by 6CR with co-treatment of Tropolone [1]: greatly improved
level of mutant HTT, 6CR with co-treatment of Tropolone (mutant HTT): decreased accordingly

Reference: patent publication US11891601B2, “Method to enhance the transcription regulation of SUPT4H on genes containing repetitive nucleotide sequences” (National Yang-Ming University, priority 2018, dated 2024)
